Laboratory results published in article PMC8533299, “Synthesis, In Silico Study, and Anti-Cancer Activity of Thiosemicarbazone Derivatives” (Biomedicines, 2021).
In brackets after ≈: the same amount, converted by molar mass. Several values for one entry are separate records, joined by “and”; a condition that tells them apart may be missing. Equal values may be shown once.

Key:
MCF-7, EAC, B16-F0 cells = assay: MTT test, cancer cell lines overall; assay type: cell-based; settings: over the cell lines tested; read-out: IC50 (range over treated cells)
Method: The in vitro anticancer activities of the synthesized compounds were conducted using different cancerous and non-cancerous cell lines viz B16-F0 (Mouse melanoma), mouse Ehrlich Ascites Carcinoma (EAC), MCF-7 (Human breast cancer), MCF-10A (Human breast epithelial cells), and NIH/3T3 (Mouse fibroblast cells). All cell lines were procured from the National Centre for Cell Science, Pune, India. The procured cells were cultured in a six-well culture plate with Dulbecco’s Modified Eagle’s Medium (DMEM) supplemented with 10% fetal bovine serum in a humid CO2 incubator with 5% carbon dioxide at 37 °C.
The anti-cancer effect and cytotoxicity of both 3-MBTSc and 4-NBTSc compounds were evaluated against different cancerous (MCF-7, EAC, B16-F0 cells) and noncancerous cells (MCF-10A, NIH-3T3 cells) using MTT test. […] Later, the absorbance values were measured by an ELISA reader (Biorad, Hercules, CA, USA) at 570 nm wavelength using secondary wavelength as a reference at 620 nm and the percentages of cell viability was calculated using the following formula [59, 60, 61]. Cell viability (%)= Mean absorbance of treated cells/Mean absorbance of untreated cells × 100
Based on the cell viability data, the IC50 values of both compounds were calculated on different cancer cells by plotting their corresponding dose-responsive graphs.
The obtained data were statistically analyzed. […]

[1] = tested on: gene expression in B16-F0 melanoma cells; assay: RT-qPCR gene expression in B16-F0 cells; assay type: cell-based, Mouse; settings: for BCl2 Treated (RQ value) / BRCA1 Treated (RQ value) / Bax Treated (RQ value) / Caspase-3 Treated (RQ value) / Dmp1 Treated (RQ value) / Fos Treated (RQ value) / MTS 1 Treated (RQ value) / Mdm2 Treated (RQ value) / PKC Treated (RQ value) / PTEN Treated (RQ value) / RAS Treated (RQ value) / p19 Arf Treated (RQ value) / p21 Treated (RQ value) / p53 Treated (RQ value) / pRB Treated (RQ value): B16-F0 cells treated, GAPDH housekeeping gene; for BCl2 Fold Change (B16-F0 treated-B16-F0 untreated) / BRCA1 Fold Change (B16-F0 treated-B16-F0 untreated) / Bax Fold Change (B16-F0 treated-B16-F0 untreated) / Caspase-3 Fold Change (B16-F0 treated-B16-F0 untreated) / Dmp1 Fold Change (B16-F0 treated-B16-F0 untreated) / MTS 1 Fold Change (B16-F0 treated-B16-F0 untreated) / Mdm2 Fold Change (B16-F0 treated-B16-F0 untreated) / PTEN Fold Change (B16-F0 treated-B16-F0 untreated) / p19 Arf Fold Change (B16-F0 treated-B16-F0 untreated) / p21 Fold Change (B16-F0 treated-B16-F0 untreated) / p53 Fold Change (B16-F0 treated-B16-F0 untreated) / pRB Fold Change (B16-F0 treated-B16-F0 untreated): B16-F0 cells, difference of RQ values
Method: Total mRNA was isolated and extracted by Trizol reagent as described in an earlier method. RevertAid First Strand cDNA synthesis kit (Thermo Fisher Scientific, Waltham, MA, USA) was used to synthesize cDNA in a total reaction volume of 20 μL containing oligo-dT primers, RiboLock RNase inhibitor, and reverse transcriptase. Gene-specific primers were used to amplify cDNAs in RT-qPCR machine (Applied Biosystems, Waltham, MA, USA).

[2] = Solubility of the obtained compound in solvents; assay type: physicochemical
Method: 3-Methoxybenzaldehyde thiosemicarbazone (C9H11N3OS; (2E)-2-(3-methoxybenzylidene) hydrazine carbothioamide) (3MBTSc) was prepared by using the previous procedure with slight modifications. It was prepared by refluxing a mixture of thiosemicarbazide ([…], 0.01 mmol) and 3-Methoxybenzaldehyde (2.67 mL, 0.01 mmol) in a mixture of 20 mL distilled water and 20 mL methanol as the solvent medium in the presence of glacial acetic acid (2–3 mL). The reaction mixture was refluxed for about 3–4 h. After cooling, the yellow crystalline solid separated was filtered, washed, and dried. The yield of the compound was 2.16 g and the obtained compound was insoluble in CHCl3, CCl4, CH3CN, H2O, ethanol, and methanol but it was soluble in DMSO and DHF/THF. The following characterization was carried out to confirm the synthesis of 3-Methoxybenzaldehyde thiosemicarbazone by FTIR (cm^−1): v(NH2) 3403s; 3287s; v(-NH) 3150s; 1599s v(C=N); v(C=S) 1246s, 836s, ^1H-NMR (DMSO-d^6, ppm): 11.40 (s, 1H); 8.19 (s, 2H); 6.95–7.44 (m, ar-H); 3.80 (s, 3H), and ^13C-NMR (DMSO-d^6, ppm): 178.9 (s, C=S), 55.76 (s, OCH3), 111-143 (m-Ph-C), 159.6 (s, C=N).
4-Nitrobenzaldehyde thiosemicarbazone ((2E)-2-(4-nitrobenzylidene) hydrazine carbothioamide) (4NBTSc) was synthesized using earlier reported methods with slight modifications. A mixture of 1.51 g (0.01 mmol) of 4-Nitrobenzaldehyde, and 0.914 g (0.01 mmol) thiosemicarbazide was stirred for 2 h using 15 mL of methanol and 15 mL of distilled water as a solvent medium. The resulting yellow solution was allowed to cool. Then, a yellow crystalline solid separated was filtered, washed with diethyl ether and dried. The yield of the compound was 2.30 g and the obtained compound was insoluble in CHCl3, CCl4, CH3CN, H2O, ethanol, and methanol but it was soluble in DMSO and DHF/THF. The following characterization was carried out to confirm the synthesis of 4-Nitrobenzaldehyde thiosemicarbazone by FTIR (cm^−1): v(NH2) 3499m; 3373s; v(-NH) 3197s; 1588s; 1343s (v(NO2); v(C=N); v(C=S) 1137s, 750s, ^1H-NMR (DMSO-d^6, ppm): 11.66 (s, 1H); 8.38 (s, 2H); 8.32–8.03 (m, ar-H), and ^13C-NMR (DMSO-d^6, ppm): 179 (s, C=S), 128-141 (m-Ph-C), 148.06(s, C=N), 124.23 (s, CH).

Row | IC50 (MCF-7, EAC, B16-F0 cells) | SMILES | BCl2 Treated (RQ value) [1] | BRCA1 Treated (RQ value) [1] | Bax Treated (RQ value) [1] | Caspase-3 Treated (RQ value) [1] | Dmp1 Treated (RQ value) [1] | Fos Treated (RQ value) [1] | MTS 1 Treated (RQ value) [1] | Mdm2 Treated (RQ value) [1] | PKC Treated (RQ value) [1] | PTEN Treated (RQ value) [1] | RAS Treated (RQ value) [1] | p19 Arf Treated (RQ value) [1] | p21 Treated (RQ value) [1] | p53 Treated (RQ value) [1] | pRB Treated (RQ value) [1] | BCl2 Fold Change (B16-F0 treated-B16-F0 untreated) [1] | BRCA1 Fold Change (B16-F0 treated-B16-F0 untreated) [1] | Bax Fold Change (B16-F0 treated-B16-F0 untreated) [1] | Caspase-3 Fold Change (B16-F0 treated-B16-F0 untreated) [1] | also measured
1 | 2.82 to 14.2 µg/mL (≈ 13.5 to 68.1 µM) | COc1cccc(C=NNC(N)=S)c1 [3-MBTSc, 3-Methoxybenzaldehyde thiosemicarbazone] | 2.14 ± 0.028 | 1.14 ± 0.028 | 3.095 ± 0.021 | 6.105 ± 0.021 | 5.19 ± 0.028 | 3.135 ± 0.021 | 6.14 ± 0.042 | 5.105 ± 0.021 | 5.13 ± 0.028 | 4.94 ± 0.028 | 4.16 ± 0.028 | 5.125 ± 0.021 | 5.115 ± 0.021 | 5.185 ± 0.035 | 1.105 ± 0.007 | 0.050 fold | -0.660 fold | 0.360 fold | 3.505 fold and 3.50 fold | Dmp1 Fold Change (B16-F0 treated-B16-F0 untreated) [1]: 2.700 fold; MTS 1 Fold Change (B16-F0 treated-B16-F0 untreated) [1]: 4.205 fold; Mdm2 Fold Change (B16-F0 treated-B16-F0 untreated) [1]: -2.135 fold; PTEN Fold Change (B16-F0 treated-B16-F0 untreated) [1]: 2.795 fold; p19 Arf Fold Change (B16-F0 treated-B16-F0 untreated) [1]: 3.790 fold; p21 Fold Change (B16-F0 treated-B16-F0 untreated) [1]: 2.925 fold; p53 Fold Change (B16-F0 treated-B16-F0 untreated) [1]: 3.025 fold; pRB Fold Change (B16-F0 treated-B16-F0 untreated) [1]: -0.495 fold; solubility in CHCl3, CCl4, CH3CN, H2O, ethanol, and methanol [2]: insoluble; solubility in DMSO and DHF/THF [2]: soluble
2 | 2.8 to 7.59 µg/mL (≈ 12.5 to 33.8 µM) | NC(=S)N[N-][CH+]c1ccc([N+](=O)[O-])cc1 [4-NBTSc, 4-Nitrobenzaldehyde thiosemicarbazone] | 2.36 ± 0.028 | 1.94 ± 0.028 | 6.09 ± 0.028 | 5.215 ± 0.021 | 7.19 ± 0.028 | 2.905 ± 0.021 | 4.865 ± 0.021 | 6.1 ± 0.014 | 7.14 ± 0.028 | 6.97 ± 0.014 | 4.145 ± 0.035 | 3.145 ± 0.035 | 4.12 ± 0.014 | 3.185 ± 0.021 | 1.06 ± 0.085 | 0.27 fold | 0.14 fold | 3.355 fold and 3.35 fold | 2.615 fold | Dmp1 Fold Change (B16-F0 treated-B16-F0 untreated) [1]: 4.7 fold; MTS 1 Fold Change (B16-F0 treated-B16-F0 untreated) [1]: 2.93 fold; Mdm2 Fold Change (B16-F0 treated-B16-F0 untreated) [1]: -1.14 fold; PTEN Fold Change (B16-F0 treated-B16-F0 untreated) [1]: 4.825 fold and 4.82 fold; p19 Arf Fold Change (B16-F0 treated-B16-F0 untreated) [1]: 1.81 fold; p21 Fold Change (B16-F0 treated-B16-F0 untreated) [1]: 1.93 fold; p53 Fold Change (B16-F0 treated-B16-F0 untreated) [1]: 1.025 fold; pRB Fold Change (B16-F0 treated-B16-F0 untreated) [1]: -0.54 fold; solubility in CHCl3, CCl4, CH3CN, H2O, ethanol, and methanol [2]: insoluble; solubility in DMSO and DHF/THF [2]: soluble
